Values after ≈ are worked out from the molar mass of the structure shown.
Conditions: buffer; pH 7.4; 200.0 µM

Q: For `CC(=O)Nc1ccc(NC(=O)COC(=O)c2ccc([N+](=O)[O-])o2)cc1`, which solubility kinetic is on record?
A: > 52.1 µg/mL

Q: With `COc1cc(S(=O)(=O)N2CCN(C(=O)C3CC3)CC2)ccc1NC(C)=O` as the molecule, how does the solubility kinetic read?
A: > 57.2 µg/mL

Q: For `CCOc1ccc(C(=S)N2CCCC2)cc1OCC`, which solubility kinetic is on record?
A: 41.8 µg/mL (≈ 150 µM)

Q: With `COc1ccc(C(=O)Nc2ccc(NC(=O)C3CC3)nc2)cc1` as the molecule, how does the solubility kinetic read?
A: 1.7 µg/mL (≈ 5.46 µM)

Q: For `COc1ccc(CNC(=S)Nc2ccccc2)cc1`, which solubility kinetic is on record?
A: > 40.9 µg/mL

Q: With `Cc1ccc(-c2ccnc3cc(C)nn23)cc1` as the molecule, how does the solubility kinetic read?
A: > 33.5 µg/mL

Q: With `CCC(=O)Nc1ccc(S(=O)(=O)Nc2nccs2)cc1` as the molecule, how does the solubility kinetic read?
A: 45.5 µg/mL (≈ 146 µM)

Q: For `CC(=O)c1ccccc1OC(=O)c1ccc([N+](=O)[O-])o1`, which solubility kinetic is on record?
A: > 41.3 µg/mL

Q: With `COc1ccc(/C=C2/N=C(SC)NC2=O)cc1OC` as the molecule, how does the solubility kinetic read?
A: 10.1 µg/mL (≈ 36.3 µM)

Q: Which solubility kinetic does the source give for `COc1cc(CCC(=O)NCc2ccc(F)cc2)cc(OC)c1OC` here?
A: > 52.1 µg/mL

Q: Which solubility kinetic does the source give for `CN(C)S(=O)(=O)c1cccc(NC(=O)COC(=O)[C@H](Cc2ccccc2)NC(=O)c2ccco2)c1` here?
A: 24.2 µg/mL (≈ 48.4 µM)

Q: With `COC(=O)Cc1c(O)ccn(CCc2c[nH]c3ccc(OC)cc23)c1=O` as the molecule, how does the solubility kinetic read?
A: > 53.5 µg/mL

Q: For `COc1ccccc1S(=O)(=O)Nc1ccc2nc(C)sc2c1`, which solubility kinetic is on record?
A: 10.4 µg/mL (≈ 31.1 µM)

Q: With `Brc1ccc(-c2nc(-c3ccncc3)no2)cc1` as the molecule, how does the solubility kinetic read?
A: < 0.2 µg/mL

Q: For `COc1ccc(NC(=S)N2CCc3cc(OC)c(OC)cc3C2)cc1`, which solubility kinetic is on record?
A: 1.5 µg/mL (≈ 4.18 µM)

Q: Which solubility kinetic does the source give for `CCC1Oc2ccccc2N(CC(=O)NC2CCCC2)C1=O` (centres undefined) here?
A: 42.2 µg/mL (≈ 140 µM)

Q: Which solubility kinetic does the source give for `O=[N+]([O-])c1ccc2nc(-c3ccccc3)oc2c1` here?
A: 0.4 µg/mL (≈ 1.67 µM)

Q: For `O=C(NC1CCN(C(=S)NCCc2ccccc2)CC1)C1CC1`, which solubility kinetic is on record?
A: 10.7 µg/mL (≈ 32.3 µM)

Q: Which solubility kinetic does the source give for `CN1CCN(C(=O)CCc2nc(-c3ccc(Cl)cc3)no2)CC1` here?
A: > 50.2 µg/mL

Q: With `CC(C)(C)CC(=O)NCc1cccs1` as the molecule, how does the solubility kinetic read?
A: > 31.7 µg/mL

Q: With `O=C(O)c1cc(-c2cccc([N+](=O)[O-])c2)nc2ccccc12` as the molecule, how does the solubility kinetic read?
A: > 44.1 µg/mL

Q: Which solubility kinetic does the source give for `O=C(COc1ccc2c(c1)CCC2)Nc1ccccn1` here?
A: 14.2 µg/mL (≈ 52.9 µM)

Q: For `Cl.c1ccc2c3c(c(CN4CCCCC4)cc2c1)COC3`, which solubility kinetic is on record?
A: > 45.6 µg/mL

Q: Which solubility kinetic does the source give for `NC(=O)c1cc([N+](=O)[O-])cc2c1C=Cc1ccccc1O2` here?
A: 4.6 µg/mL (≈ 16.3 µM)

Q: For `CCOC(=O)C1=C(C)NC(C)=C(C(=O)OCC)C1C(=O)OCC(=O)NCc1ccc(F)cc1`, which solubility kinetic is on record?
A: > 69.4 µg/mL

Q: Which solubility kinetic does the source give for `CCc1ccccc1NC(=O)C1CC(c2ccc(OC)cc2)=NO1` (centres undefined) here?
A: 45.3 µg/mL (≈ 140 µM)

Q: With `COc1cccc(Nc2ncc(C#N)c(N)n2)c1` as the molecule, how does the solubility kinetic read?
A: 31.9 µg/mL (≈ 132 µM)

Q: With `Cc1csc(C(=O)O)c1NC(=O)c1ccc(F)cc1` as the molecule, how does the solubility kinetic read?
A: > 41.9 µg/mL

Q: For `CCCNC(=O)NC(=O)CSc1cccc(C(F)(F)F)c1`, which solubility kinetic is on record?
A: 12.9 µg/mL (≈ 40.3 µM)

Q: For `N/C(=N\c1nc2ccccc2o1)NC(=O)c1ccccc1Br`, which solubility kinetic is on record?
A: < 0.2 µg/mL

Q: Which solubility kinetic does the source give for `OC(CNCCc1c[nH]c2ccccc12)C(F)(F)F` (centres undefined) here?
A: > 40.8 µg/mL

Q: For `CCC(C(=O)OC)(C(=O)OC)c1ccc([N+](=O)[O-])cc1`, which solubility kinetic is on record?
A: > 42.2 µg/mL

Q: For `COc1ccc(-n2c(C)cc(C(=O)CN3CCC(C)CC3)c2C)cc1`, which solubility kinetic is on record?
A: 46.3 µg/mL (≈ 136 µM)

Q: With `CCOC(=O)C1CCCN(c2c(NCCC(C)C)c(=O)c2=O)C1` (centres undefined) as the molecule, how does the solubility kinetic read?
A: 44.5 µg/mL (≈ 138 µM)

Q: Which solubility kinetic does the source give for `N#Cc1ccc2c(c1)nc1ccccn12` here?
A: > 29 µg/mL

Q: With `CN(C)CCNC(C(=O)Nc1cc(Cl)cc(Cl)c1)c1ccccc1` (centres undefined) as the molecule, how does the solubility kinetic read?
A: > 54.9 µg/mL

Q: Which solubility kinetic does the source give for `O=C(/C=C/c1ccc(Cl)cc1)N1CCOCC1` here?
A: 33.3 µg/mL (≈ 132 µM)

Q: With `CCCC12CN3CC(CCC)(CN(C1)C3c1ccco1)C2=O` (centres undefined) as the molecule, how does the solubility kinetic read?
A: > 45.4 µg/mL

Q: Which solubility kinetic does the source give for `CN(Cc1nc(-c2cccs2)no1)CC1(N2CCOCC2)CCCCC1` here?
A: 38.7 µg/mL (≈ 103 µM)

Q: With `COC(=O)Nc1nc2ccc(C(=O)c3cccs3)cc2[nH]1` as the molecule, how does the solubility kinetic read?
A: 0.3 µg/mL (≈ 0.996 µM)

Q: With `Cc1ccc(S(=O)(=O)c2c(C)cc(C)[nH]c2=O)cc1` as the molecule, how does the solubility kinetic read?
A: > 41.6 µg/mL

Q: Which solubility kinetic does the source give for `Cc1ccc(C(O)P(=O)(OC(C)C)c2ccc(N(C)C)cc2)cc1` (centres undefined) here?
A: > 52.1 µg/mL

Q: Which solubility kinetic does the source give for `Cc1cccc(OCC(=O)NCc2nc(-c3ccccc3)no2)c1` here?
A: 3.1 µg/mL (≈ 9.59 µM)

Q: With `C=CCNC(=O)c1c(O)c2cccc3c2n(c1=O)CCC3` as the molecule, how does the solubility kinetic read?
A: < 0.3 µg/mL

Q: For `CCOc1c(N2CCOCC2)c(=O)c1=O`, which solubility kinetic is on record?
A: > 31.7 µg/mL

Q: Which solubility kinetic does the source give for `COc1ccc(NC(=S)Nc2ccccc2SC)c(OC)c1` here?
A: 47.5 µg/mL (≈ 142 µM)

Q: Which solubility kinetic does the source give for `Fc1cccc(CSc2nc3ncc(Cl)cc3[nH]2)c1` here?
A: 2.6 µg/mL (≈ 8.85 µM)

Q: With `CCOC1(/N=C(\C)NS(=O)(=O)c2ccc(Cl)cc2)C(C)=CC(=O)C=C1C` as the molecule, how does the solubility kinetic read?
A: > 59.5 µg/mL

Q: Which solubility kinetic does the source give for `COc1ccc(CC(=O)Nc2cccc3c2CCCC3)cc1` here?
A: 1.8 µg/mL (≈ 6.09 µM)

Q: For `C1CCCCCC(NCCN2CCNCC2)CCCCC1`, which solubility kinetic is on record?
A: > 44.3 µg/mL

Q: For `COc1ccccc1CNC(=O)c1cc(=O)c2ccccc2o1`, which solubility kinetic is on record?
A: 10.8 µg/mL (≈ 34.9 µM)

Q: For `CCCCc1nc2cc(C(=O)N(C)C3CCOCC3)ccc2o1`, which solubility kinetic is on record?
A: > 47.5 µg/mL

Q: Which solubility kinetic does the source give for `CCCc1nc(-c2cc3ccccc3[nH]c2=O)no1` here?
A: > 38.3 µg/mL

Q: With `Cc1ccccc1N1C(=O)CC2(CCCC2)CC1=O` as the molecule, how does the solubility kinetic read?
A: 37.2 µg/mL (≈ 145 µM)

Q: Which solubility kinetic does the source give for `C=Cn1cc[n+](CC(=O)c2ccc(OC)cc2)c1.[Br-]` here?
A: 45.2 µg/mL

Q: Which solubility kinetic does the source give for `O=C(Cc1ccc(Cl)c(Cl)c1)NC1CCCCCC1` here?
A: 3.2 µg/mL (≈ 10.7 µM)

Q: For `Cc1ccsc1C(=O)NCc1ccccc1Cl`, which solubility kinetic is on record?
A: > 39.9 µg/mL

Q: Which solubility kinetic does the source give for `Cc1ccc(O)c(Nc2ncnc3ccccc23)c1.Cl` here?
A: 4.5 µg/mL

Q: With `O=C(c1ccco1)N1CCN(c2ccc([N+](=O)[O-])cc2Cl)CC1` as the molecule, how does the solubility kinetic read?
A: 3.8 µg/mL (≈ 11.3 µM)

Reference: PubChem BioAssay AID1996
